Test results as given in PubChem BioAssay AID1845200 (Molecular Pharmacology Branch, DTP, NCI, 2023).

System: ASPS-1 complex tumor spheroids, viability
Experiment: Anticancer human tumor ASPS-1 cell line growth inhibition;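 also: spheroids exposed to agents for 7 days after 3 days of growth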;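 as to viability, T/C: 100% = DMSO vehicle treated spheroids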
Conditions: for IC50: curve of first compound; for viability, T/C: stronger effect = lower value
In short: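 Single agents and combinations were tested on spheroids built from tumor cells plus HUVEC and hMSC, at half-log dilutions starting at or near clinical Cmax, else 10 microM; final DMSO 0.25% (v/v).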

[1] = second compound 30 pM, first compound 0.0316 µM
[2] = second compound 30 pM, first compound 0.1 µM
[3] = second compound 30 pM, first compound 0.316 µM
[4] = second compound 30 pM, first compound 1 µM
[5] = second compound 30 pM, first compound 3.16 µM
[6] = second compound 30 pM, first compound 10 µM
[7] = second compound 94.9 pM, first compound 0.0316 µM
[8] = second compound 94.9 pM, first compound 0.1 µM
[9] = second compound 94.9 pM, first compound 0.316 µM
[10] = second compound 94.9 pM, first compound 1 µM
[11] = second compound 94.9 pM, first compound 3.16 µM
[12] = second compound 94.9 pM, first compound 10 µM
[13] = second compound 0.0003 µM, first compound 0.0316 µM
[14] = second compound 0.0003 µM, first compound 0.1 µM
[15] = second compound 0.0003 µM, first compound 0.316 µM
[16] = second compound 0.0003 µM, first compound 1 µM
[17] = second compound 0.0003 µM, first compound 3.16 µM
[18] = second compound 0.0003 µM, first compound 10 µM
[19] = second compound 0.000949 µM, first compound 0.0316 µM
[20] = second compound 0.000949 µM, first compound 0.1 µM
[21] = second compound 0.000949 µM, first compound 0.316 µM
[22] = second compound 0.000949 µM, first compound 1 µM
[23] = second compound 0.000949 µM, first compound 3.16 µM
[24] = second compound 0.000949 µM, first compound 10 µM
[25] = second compound 0.003 µM, first compound 0.0316 µM
[26] = second compound 0.003 µM, first compound 0.1 µM
[27] = second compound 0.003 µM, first compound 0.316 µM
[28] = second compound 0.003 µM, first compound 1 µM
[29] = second compound 0.003 µM, first compound 3.16 µM
[30] = second compound 0.003 µM, first compound 10 µM

Work on Cc1cc(C)c(CNC(=O)c2cc(-c3ccc(CN4CCOCC4)cc3)cc3c2cnn3C2CCCC2)c(=O)[nH]1 + COc1cc2c(cc1O)CCNC21CSC2c3c(OC(C)=O)c(C)c4c(c3C(COC1=O)N1C(O)C3Cc5cc(C)c(OC)c(O)c5C(C21)N3C)OCO4 yielded an IC50 (second compound 30 pM) greater than 10 µM, an IC50 (second compound 94.9 pM) greater than 10 µM and an IC50 (second compound 0.0003 µM) greater than 10 µM. For the same compound, the IC50 (second compound 0.000949 µM) was 0.273 µM, the IC50 (second compound 0.003 µM) was less than 0.0316 µM and the viability, T/C [1] was 103%. The viability, T/C [2] was 97.4%, the viability, T/C [3] was 102% and the viability, T/C [4] was 104%. For the same compound, the viability, T/C [5] was 96.9%, the viability, T/C [6] was 84.4% and the viability, T/C [7] was 105%. It also gave a viability, T/C [8] of 97.8%, a viability, T/C [9] of 98.7% and a viability, T/C [10] of 99.5%. It also gave a viability, T/C [11] of 93.5%, a viability, T/C [12] of 76.8% and a viability, T/C [13] of 92%. For the same compound, the viability, T/C [14] was 96.2%, the viability, T/C [15] was 92.8% and the viability, T/C [16] was 86.2%. The viability, T/C [17] was 80.1%, the viability, T/C [18] was 63.1% and the viability, T/C [19] was 56.8%. For the same compound, the viability, T/C [20] was 75.2%, the viability, T/C [21] was 39.9% and the viability, T/C [22] was 31.6%. It also gave a viability, T/C [23] of 24.5%, a viability, T/C [24] of 9.44% and a viability, T/C [25] of 13.7%. It also gave a viability, T/C [26] of 5.99%, a viability, T/C [27] of 2.02% and a viability, T/C [28] of 0.27%. It also gave a viability, T/C [29] of 0.25% and a viability, T/C [30] of 0.32%.

[2H]c1nc(C)nc([2H])c1-c1cc(NC[C@@H](C)c2cccc3c(C(=O)NC)ccnc23)ncn1 + COc1cc2c(cc1O)CCNC21CSC2c3c(OC(C)=O)c(C)c4c(c3C(COC1=O)N1C(O)C3Cc5cc(C)c(OC)c(O)c5C(C21)N3C)OCO4 gave an IC50 (second compound 30 pM) greater than 10 µM, an IC50 (second compound 94.9 pM) greater than 10 µM and an IC50 (second compound 0.0003 µM) greater than 10 µM. The IC50 (second compound 0.000949 µM) was 6.59 µM, the IC50 (second compound 0.003 µM) was less than 0.0316 µM and the viability, T/C [1] was 106%. It also gave a viability, T/C [2] of 105%, a viability, T/C [3] of 102% and a viability, T/C [4] of 107%. It also gave a viability, T/C [5] of 102%, a viability, T/C [6] of 98.7% and a viability, T/C [7] of 106%. It also gave a viability, T/C [8] of 102%, a viability, T/C [9] of 99% and a viability, T/C [10] of 98.2%. The viability, T/C [11] was 97.6%, the viability, T/C [12] was 99.5% and the viability, T/C [13] was 97.6%. For the same compound, the viability, T/C [14] was 94.8%, the viability, T/C [15] was 93% and the viability, T/C [16] was 88.5%. For the same compound, the viability, T/C [17] was 98%, the viability, T/C [18] was 91.3% and the viability, T/C [19] was 78.6%. The viability, T/C [20] was 76.5%, the viability, T/C [21] was 71.1% and the viability, T/C [22] was 66.2%. It also gave a viability, T/C [23] of 56.2%, a viability, T/C [24] of 46.2% and a viability, T/C [25] of 18.6%. It also gave a viability, T/C [26] of 22.6%, a viability, T/C [27] of 18% and a viability, T/C [28] of 18.1%. The viability, T/C [29] was 11% and the viability, T/C [30] was 3.59%.
